Measurements published in patent US6545002B1 (University of Virginia Patent Foundation, priority 1999, dated 2003).
Like-named read-outs stand apart in the source and are kept apart here.

Key:
[1] = target: T1, rat A2A receptors (rA2A) (Rattus norvegicus, UniProt P30543); assay: Displacement of [3H]CGS 21680 binding in rat striatal membranes
T1 construct: to A2A receptors from rat striatal membranes was performed as described; from tissue; host or cells: rat striatal membranes
Description: (§1) Bruns, R. F. et al., Naunyn-Schmiedeberg's Arch. […] Binding of [^3H]R-N^6-phenylisopropyladenosine. Schwabe, U. et al., Naunyn-Schmiedeberg's Arch. […] (Dupont NEN, Boston, Mass.) to A2A receptors from rat striatal membranes was performed as described. […] All non-radioactive compounds were initially dissolved in DMSO, and diluted with buffer to the final concentration, where the amount of DMSO never exceeded 2%. Incubations were terminated by rapid filtration over Whatman GF/B filters, using a Brandell cell harvester (Brandell, Gaithersburg, Md.). The tubes were rinsed three times with 3 mL buffer each.
(§2) At least six different concentrations of competitor, spanning 3 orders of magnitude adjusted appropriately for the IC50 of each compound, were used. IC50 values, calculated with the nonlinear regression method implemented in (Graph-Pad Prism, San Diego, Calif.), were converted to apparent Ki values as described. Linden, J., J. Cycl. Nucl.

[2] = target: T2, rat A1 receptors (rA1) (Rattus norvegicus, UniProt P25099); assay: Displacement of [3H]R-PIA binding in rat brain (cerebral cortical) membranes
T2 construct: to A1 receptors from rat cerebral cortical membranes; from tissue; host or cells: rat cerebral cortical (brain) membranes
T2 sequence (P25099 1-326): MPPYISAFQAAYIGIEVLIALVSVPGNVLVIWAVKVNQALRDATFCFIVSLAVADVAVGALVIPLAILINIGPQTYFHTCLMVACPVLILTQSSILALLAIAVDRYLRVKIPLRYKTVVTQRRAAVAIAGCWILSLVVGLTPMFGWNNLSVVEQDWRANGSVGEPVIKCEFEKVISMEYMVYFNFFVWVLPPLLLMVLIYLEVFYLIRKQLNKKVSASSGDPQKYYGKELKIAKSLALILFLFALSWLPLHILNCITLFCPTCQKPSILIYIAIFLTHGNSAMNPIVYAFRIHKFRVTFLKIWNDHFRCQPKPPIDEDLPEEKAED
Description: as §1, §2

[3] = target: T3, human A3 receptors (hA3) (Homo sapiens, UniProt P0DMS8); assay: Displacement of [125I]AB-MECA binding at human A3 receptors expressed in HEK-293 cells (Table 4)
T3 construct: expressed in transfected cells; host or cells: HEK-293
T3 sequence (P0DMS8 1-318): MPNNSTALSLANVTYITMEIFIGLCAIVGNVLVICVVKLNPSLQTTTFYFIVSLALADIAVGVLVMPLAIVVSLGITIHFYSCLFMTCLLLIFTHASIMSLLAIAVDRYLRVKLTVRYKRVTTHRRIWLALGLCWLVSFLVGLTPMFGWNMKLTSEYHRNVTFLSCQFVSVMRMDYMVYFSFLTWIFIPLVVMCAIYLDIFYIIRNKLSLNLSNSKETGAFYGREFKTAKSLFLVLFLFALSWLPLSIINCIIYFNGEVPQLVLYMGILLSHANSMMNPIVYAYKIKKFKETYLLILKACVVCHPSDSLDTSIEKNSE

[4] = target: T4, human A2B receptors (hA2B) (Homo sapiens, UniProt P29275); assay: Radioligand binding ([125I]ABOPX / [3H]ZM241385) at human A2B receptors expressed in HEK-293 cells
T4 construct: expressed in transfected cells; host or cells: HEK-293 (HEK-A2B, G418-selected)
T4 sequence (P29275 1-332): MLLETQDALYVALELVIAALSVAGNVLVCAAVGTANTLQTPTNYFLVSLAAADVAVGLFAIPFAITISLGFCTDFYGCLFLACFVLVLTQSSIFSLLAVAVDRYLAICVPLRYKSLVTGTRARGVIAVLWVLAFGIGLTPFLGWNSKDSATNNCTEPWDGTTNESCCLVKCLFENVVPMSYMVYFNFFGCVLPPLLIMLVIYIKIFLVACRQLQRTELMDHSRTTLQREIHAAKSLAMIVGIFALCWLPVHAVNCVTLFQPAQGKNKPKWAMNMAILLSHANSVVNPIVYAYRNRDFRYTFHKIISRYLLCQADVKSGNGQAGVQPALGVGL

[5] = target: recombinant human A2A receptors (hA2A) (Homo sapiens, UniProt P29274); assay: Radioligand binding (125I-ZM241385) at recombinant human A2A receptors in HEK-293 cells
[6] = target: T3, human A3 receptors (hA3); assay: Displacement of [125I]ABA binding at human A3 receptors expressed in HEK-293 cells
[7] = target: T5, recombinant human A1 receptors (hA1) (Homo sapiens, UniProt P30542); assay: Radioligand binding ([3H]CPX) at recombinant human A1 receptors in HEK-293 cells
T5 sequence (P30542 1-326): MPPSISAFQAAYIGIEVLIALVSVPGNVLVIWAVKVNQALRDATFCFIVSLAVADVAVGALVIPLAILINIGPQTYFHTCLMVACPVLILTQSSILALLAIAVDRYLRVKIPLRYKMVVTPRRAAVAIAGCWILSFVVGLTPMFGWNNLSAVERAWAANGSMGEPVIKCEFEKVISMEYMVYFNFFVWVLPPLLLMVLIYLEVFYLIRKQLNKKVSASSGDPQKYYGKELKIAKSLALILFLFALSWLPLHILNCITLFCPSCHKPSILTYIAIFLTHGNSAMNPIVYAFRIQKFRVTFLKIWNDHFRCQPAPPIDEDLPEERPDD
Description: The potency of the xanthine derivatives at human A2B receptors was evaluated using two binding assays. […] In order to determine selectivity, the xanthines were evaluated using standard binding assays at A1, A2A, and A3 receptors.

[8] = Table 2, read-out: rA2A Ki or IC50
[9] = Table 2, read-out: rA1 Ki or IC50
[10] = Table 2, read-out: hA2B Ki or IC50
[11] = read-out: hA2A Ki or IC50, Table 2
[12] = Table 2, read-out: hA3 Ki or IC50
[13] = read-out: hA1 Ki or IC50, Table 2
[14] = read-out: Ki value at human A2B receptors

T1 sequence (P30543 whole entry): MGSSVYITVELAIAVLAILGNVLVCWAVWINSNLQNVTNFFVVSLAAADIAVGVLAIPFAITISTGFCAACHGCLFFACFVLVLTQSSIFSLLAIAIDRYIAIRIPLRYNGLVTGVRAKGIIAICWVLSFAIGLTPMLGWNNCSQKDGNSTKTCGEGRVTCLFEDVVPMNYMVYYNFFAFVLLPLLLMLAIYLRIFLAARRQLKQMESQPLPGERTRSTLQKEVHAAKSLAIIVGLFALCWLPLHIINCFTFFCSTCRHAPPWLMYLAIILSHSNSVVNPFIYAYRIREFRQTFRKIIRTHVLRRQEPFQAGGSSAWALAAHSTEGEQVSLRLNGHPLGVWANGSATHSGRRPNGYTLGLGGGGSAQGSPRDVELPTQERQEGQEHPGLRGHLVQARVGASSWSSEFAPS
Sequence of recombinant human A2A receptors (hA2A) (P29274 whole entry): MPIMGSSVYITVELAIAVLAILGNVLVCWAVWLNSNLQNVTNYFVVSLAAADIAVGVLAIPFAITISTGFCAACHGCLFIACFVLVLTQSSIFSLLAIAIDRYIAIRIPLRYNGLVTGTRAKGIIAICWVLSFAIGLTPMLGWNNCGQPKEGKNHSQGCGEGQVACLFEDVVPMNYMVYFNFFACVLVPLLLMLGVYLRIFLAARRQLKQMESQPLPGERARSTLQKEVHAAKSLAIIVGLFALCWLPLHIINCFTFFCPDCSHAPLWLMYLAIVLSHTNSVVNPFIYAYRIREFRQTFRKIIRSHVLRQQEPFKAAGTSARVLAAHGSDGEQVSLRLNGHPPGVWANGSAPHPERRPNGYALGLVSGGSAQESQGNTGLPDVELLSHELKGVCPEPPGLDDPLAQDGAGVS

SMILES	Ki [1, 8] [nM]	Ki [2, 9] [nM]	Ki [4, 10] [nM]	Ki [5, 11] [nM]	melting point [°C]	Ki [6, 12] [nM]	Ki [7, 13] [nM]	Ki [4, 14] [nM]	also measured
CCCn1c(=O)c2[nH]c(-c3ccc(OCC(=O)NN)cc3)nc2n(CCC)c1=O [Compound 4f]									Ki ([1]; Table 4, read-out: rA2A Ki): 63.8 ± 21.3 nM; Ki ([2]; Table 4, read-out: rA1 Ki): 16 ± 0.5 nM; Ki [3]: 498 ± 139 nM
CCCn1c(=O)c2[nH]c(-c3ccc(OCC(=O)Nc4ccc(Br)cc4)cc3)nc2n(CCC)c1=O [Compound 32, 8-[4-[((4-Bromo)phenylcarbamoylmethyl)oxy]phenyl]-1,3-di-(n-propyl)xanthine]	221 ± 36	7.46 ± 2.66	2.35 ± 0.01	1640	> 310	2300	73.5 ± 23.3		
CCCn1c(=O)c2[nH]c(-c3ccc(OCC(=O)NN4C(=O)C(C)=C(C)C4=O)cc3)nc2n(CCC)c1=O [Compound 47, 8-[4-[(Carboxymethyl)oxy]phenyl]-1,3-di-(n-propyl)xanthine N,N-[(1,2-Dimethyl)maleyl]hydrazide]					> 310			19	Ki ([1]; Table 4, read-out: rA2A Ki): 126 ± 41 nM; Ki ([2]; Table 4, read-out: rA1 Ki): 11.1 ± 2.4 nM; selectivity for human A2B versus human A1 receptors [4]: 160 fold; selectivity for human A2B versus human A2A receptors [4]: 100 fold; selectivity for human A2B versus human A3 receptors [4]: 35 fold; hA1/hA2B ([4]; Table 1, Ki ratio): 110; hA2A/hA2B ([4]; Table 1, Ki ratio): 74; hA3/hA2B ([4]; Table 1, Ki ratio): 25; Ki ([4]; Table 1, [125I]ABOPX, HEK-293, read-out: hA2B Ki or IC50): 26.6 ± 4 nM; rA1/hA2B ([4]; Table 4, Ki ratio): 0.57; Ki ([4]; Table 4, footnote a: [125I]-ABOPX, read-out: hA2B Ki (value marked ^a) (converted)): 33.8 nM; Ki ([4]; Table 4, unmarked value, first of two binding assays, read-out: hA2B Ki): 19.4 ± 6.2 nM; Ki ([5]; read-out: hA2A Ki, values marked (h), Table 1, recombinant human A2A, HEK 293): 1970 nM; Ki ([6]; Table 4, footnote a: [125I]ABA, read-out: hA3 Ki (value marked ^a)): 670 ± 154 nM; Ki ([7]; read-out: hA1 Ki, values marked (h)^a, Table 4, vs [3H]CPX, HEK-293): 3030 nM
CCCn1c(=O)c2[nH]c(-c3ccc(OCC(=O)Nc4ccc(C(F)(F)F)cc4)cc3)nc2n(CCC)c1=O [Compound 29, 8-[4-[((4-Trifluoromethyl)phenylcarbamoylmethyl)oxy]phenyl]-1,3-di-(n-propyl)xanthine]	917 ± 258	44.6 ± 6.5		238 ± 28	> 310	213 ± 94	61.2 ± 8.2	2.14	
CCCn1c(=O)c2[nH]c(-c3ccc(OCC(=O)Nc4cccc(C(C)=O)c4)cc3)nc2n(CCC)c1=O [Compound 19, 8-[4-[((3-Acetylphenyl)carbamoylmethyl)oxy]phenyl]-1,3-di-(n-propyl)xanthine]	949 ± 394	439 ± 111	4.92 ± 0.55	58.9 ± 7.1	269 to 270	352 ± 69	234 ± 28		
CCCn1c(=O)c2[nH]c(-c3ccc(OCC(=O)Nc4ccc([N+](=O)[O-])cc4)cc3)nc2n(CCC)c1=O [Compound 28, 8-[4-[((4-Nitro)phenylcarbamoylmethyl)oxy]phenyl]-1,3-di-(n-propyl)xanthine]	1180	13.1 ± 3.9		70 ± 10.7	307	138 ± 17.1	57 ± 3.1	1.52	selectivity for human A2B versus human A1 receptors [4]: 35 fold
CCCn1c(=O)c2[nH]c(-c3ccc(OCC(=O)N(Cc4ccccc4)Cc4ccccc4)cc3)nc2n(CCC)c1=O [Compound 15, 8-[4-[(Dibenzylcarbamoylmethyl)oxy]phenyl]-1,3-di-(n-propyl)-xanthine]	2750	167 ± 49	9.88 ± 1.05	642 ± 198	230	284 ± 14	690 ± 98		
